In experiment [1] the test system is Human immunodeficiency virus. The experiment is described as follows: Reactivation of HIV latency infected in human 2C4 cells in presence of 0.1 % NHS by luciferase reporter gene assay. The format is functional, organism-based. On the technique in general: Reporter assays use an easily measured gene product as a stand-in for the process of interest.
The next experiment deals with T1, Histone deacetylase 8 (Homo sapiens, UniProt Q9BY41).
T1 sequence (Q9BY41 whole entry): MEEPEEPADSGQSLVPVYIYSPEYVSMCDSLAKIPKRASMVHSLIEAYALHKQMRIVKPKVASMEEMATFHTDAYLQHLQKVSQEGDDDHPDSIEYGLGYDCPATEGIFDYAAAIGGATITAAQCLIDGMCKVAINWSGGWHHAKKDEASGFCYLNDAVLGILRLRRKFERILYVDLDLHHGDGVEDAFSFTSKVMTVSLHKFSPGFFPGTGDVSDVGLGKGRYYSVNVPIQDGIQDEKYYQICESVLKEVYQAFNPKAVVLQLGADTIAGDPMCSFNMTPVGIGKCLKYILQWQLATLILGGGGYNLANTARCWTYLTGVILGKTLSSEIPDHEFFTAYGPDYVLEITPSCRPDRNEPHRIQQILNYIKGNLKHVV
The experiment is described as follows: Inhibition of HDAC8 (unknown origin).

Experiment [2] deals with T2, Protein deacetylase HDAC6 (Homo sapiens, UniProt Q9UBN7).
T2 sequence (Q9UBN7 whole entry): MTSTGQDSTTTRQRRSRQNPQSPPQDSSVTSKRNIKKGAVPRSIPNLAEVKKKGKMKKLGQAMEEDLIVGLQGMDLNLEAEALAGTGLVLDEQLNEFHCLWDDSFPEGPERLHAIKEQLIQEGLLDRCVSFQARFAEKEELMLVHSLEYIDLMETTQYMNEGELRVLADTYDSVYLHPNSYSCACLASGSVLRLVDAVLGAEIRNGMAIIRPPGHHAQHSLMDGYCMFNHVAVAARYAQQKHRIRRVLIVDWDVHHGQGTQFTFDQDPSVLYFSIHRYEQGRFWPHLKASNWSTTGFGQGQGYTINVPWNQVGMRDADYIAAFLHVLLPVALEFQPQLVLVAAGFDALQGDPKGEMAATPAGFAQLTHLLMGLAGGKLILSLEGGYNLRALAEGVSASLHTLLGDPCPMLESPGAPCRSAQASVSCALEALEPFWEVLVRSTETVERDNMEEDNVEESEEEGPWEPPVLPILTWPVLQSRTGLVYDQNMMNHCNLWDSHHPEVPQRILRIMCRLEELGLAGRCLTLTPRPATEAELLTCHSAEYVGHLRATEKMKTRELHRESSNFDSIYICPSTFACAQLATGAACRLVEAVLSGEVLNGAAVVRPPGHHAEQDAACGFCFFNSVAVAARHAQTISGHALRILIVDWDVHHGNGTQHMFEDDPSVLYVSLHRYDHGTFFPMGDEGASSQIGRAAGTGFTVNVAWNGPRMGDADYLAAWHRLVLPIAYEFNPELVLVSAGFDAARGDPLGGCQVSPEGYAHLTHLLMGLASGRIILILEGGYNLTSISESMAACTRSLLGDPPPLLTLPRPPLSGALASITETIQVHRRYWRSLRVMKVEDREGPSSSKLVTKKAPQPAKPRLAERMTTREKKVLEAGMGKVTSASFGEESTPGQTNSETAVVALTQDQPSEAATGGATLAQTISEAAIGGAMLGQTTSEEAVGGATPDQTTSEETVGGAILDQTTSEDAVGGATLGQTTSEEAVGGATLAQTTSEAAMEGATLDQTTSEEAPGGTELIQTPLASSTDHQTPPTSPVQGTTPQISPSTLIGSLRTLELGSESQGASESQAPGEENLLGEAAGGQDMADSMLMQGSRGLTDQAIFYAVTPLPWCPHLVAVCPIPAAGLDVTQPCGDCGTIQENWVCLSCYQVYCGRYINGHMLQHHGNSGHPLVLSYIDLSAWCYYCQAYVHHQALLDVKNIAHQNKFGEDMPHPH
The experiment is described as follows: Inhibition of HDAC6 (unknown origin).

Experiment [3] deals with Human immunodeficiency virus. Description: Reactivation of HIV latency infected in human 2C4 cells in presence of 5 % NHS by luciferase reporter gene assay. In kind it is functional, organism-based.
The target of a further experiment is Histone deacetylase 2 (Homo sapiens, UniProt Q92769). The experiment is described as follows: Inhibition of HDAC2 (unknown origin).
Sequence of Histone deacetylase 2 (Q92769 whole entry): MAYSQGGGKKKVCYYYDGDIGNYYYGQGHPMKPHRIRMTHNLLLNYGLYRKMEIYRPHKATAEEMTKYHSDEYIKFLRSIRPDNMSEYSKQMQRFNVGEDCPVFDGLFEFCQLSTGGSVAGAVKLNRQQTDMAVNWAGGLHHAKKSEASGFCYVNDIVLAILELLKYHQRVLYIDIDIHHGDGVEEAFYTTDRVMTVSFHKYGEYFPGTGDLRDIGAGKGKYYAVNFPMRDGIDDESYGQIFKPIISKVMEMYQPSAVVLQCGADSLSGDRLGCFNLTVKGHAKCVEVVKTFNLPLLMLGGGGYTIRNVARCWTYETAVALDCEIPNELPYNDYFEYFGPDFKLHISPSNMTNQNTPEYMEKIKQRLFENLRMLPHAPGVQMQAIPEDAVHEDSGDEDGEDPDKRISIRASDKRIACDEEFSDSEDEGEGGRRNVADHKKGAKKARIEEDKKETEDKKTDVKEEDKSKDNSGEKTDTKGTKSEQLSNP
The target of a further experiment is Histone deacetylase 3 (Homo sapiens, UniProt O15379). The experiment is described as follows: Inhibition of HDAC3 (unknown origin).
Sequence of Histone deacetylase 3 (O15379 whole entry): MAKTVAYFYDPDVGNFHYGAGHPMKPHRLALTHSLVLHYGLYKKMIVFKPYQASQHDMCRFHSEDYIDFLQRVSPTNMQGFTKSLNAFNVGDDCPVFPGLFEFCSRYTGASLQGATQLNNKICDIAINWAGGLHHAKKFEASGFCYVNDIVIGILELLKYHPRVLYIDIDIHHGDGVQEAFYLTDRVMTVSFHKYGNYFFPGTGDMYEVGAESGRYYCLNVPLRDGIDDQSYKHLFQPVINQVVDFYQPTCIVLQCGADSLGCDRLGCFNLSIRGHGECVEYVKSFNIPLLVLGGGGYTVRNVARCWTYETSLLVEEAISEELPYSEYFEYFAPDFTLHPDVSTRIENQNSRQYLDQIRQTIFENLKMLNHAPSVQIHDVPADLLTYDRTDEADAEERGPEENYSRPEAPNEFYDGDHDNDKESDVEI
A further experiment deals with Histone deacetylase 1 (Homo sapiens, UniProt Q13547). The experiment is described as follows: Inhibition of HDAC1 (unknown origin).
Sequence of Histone deacetylase 1 (Q13547 whole entry): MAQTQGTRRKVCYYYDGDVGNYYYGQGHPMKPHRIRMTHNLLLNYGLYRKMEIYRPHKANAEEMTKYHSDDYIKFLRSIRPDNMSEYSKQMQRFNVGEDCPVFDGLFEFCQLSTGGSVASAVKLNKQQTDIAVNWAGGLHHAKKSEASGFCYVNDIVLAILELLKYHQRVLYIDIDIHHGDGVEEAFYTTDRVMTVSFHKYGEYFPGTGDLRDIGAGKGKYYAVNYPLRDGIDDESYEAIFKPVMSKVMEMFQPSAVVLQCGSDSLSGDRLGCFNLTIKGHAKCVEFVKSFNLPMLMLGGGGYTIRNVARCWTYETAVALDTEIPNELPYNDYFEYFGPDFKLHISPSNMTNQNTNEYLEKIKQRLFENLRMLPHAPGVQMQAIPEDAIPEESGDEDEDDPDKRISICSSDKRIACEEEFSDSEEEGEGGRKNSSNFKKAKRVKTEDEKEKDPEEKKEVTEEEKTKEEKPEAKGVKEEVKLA
Where [4] appears, read: Human immunodeficiency virus 1, 2C4.

This passage reports EC50 and IC50 results from ChEMBL document CHEMBL4811291, “Discovery of macrocyclic HDACs 1, 2, and 3 selective inhibitors for HIV latency reactivation” (Bioorg Med Chem Lett, 2021).

Usually EC50 stands for the concentration at which the effect is half-maximal. The IC50 is the concentration that inhibits the measured activity by half. A lower IC50 goes with inhibition by little substance.

Turning to `CCC(=O)CCCCC[C@@H]1NC(=O)CN(C)CCCCOCCCCn2ccc3cc(ccc3c2=O)-c2cnc1[nH]2`, the EC50 came out at 2.5 µM in experiment [1] (setting [4]) and 3.51 µM in experiment [3] (setting [4]). In addition, the concentration for half-maximal inhibition (IC50) (at Histone deacetylase 8; in experiment [2]) was > 0.9 µM throughout.
Regarding `CCC(=O)CCCCC[C@@H]1NC(=O)[C@H]2CC23CCN(CCCCN2C4CCC2c2cc(ccc24)-c2cnc1[nH]2)CC3` (some centres undefined), the EC50 stood at 0.844 µM in experiment [1] (setting [4]) and 0.867 µM in experiment [3] (setting [4]). The half-maximal inhibitory concentration (IC50) against Histone deacetylase 2 was 0.049 µM; on Histone deacetylase 8, > 0.9 µM; in experiment [2] it was > 0.9 µM.
As for `CCC(=O)CCCCC[C@@H]1NC(=O)[C@H]2CC23CCN(CCCCN2C4CCC2c2c(cccc24)-c2cnc1[nH]2)CC3` (some centres undefined), the EC50 amounted to 6.27 µM in experiment [1] (setting [4]) and 9.06 µM in experiment [3] (setting [4]). The concentration for half-maximal inhibition (IC50) against Histone deacetylase 2 is 0.024 µM; at Histone deacetylase 8 it was > 0.9 µM; in experiment [2] it was > 0.9 µM.
As for `CCC(=O)CCCCC[C@@H]1NC(=O)C2CCN2CCCCCCOc2ccccc2-c2cnc1[nH]2` (stereo in doubt; 6), the EC50 in experiment [1] (setting [4]) was determined as 1.57 µM; in experiment [3] (setting [4]), 3.02 µM. Moreover, the IC50 turned out to be 0.668 µM against Histone deacetylase 2; 8.42 µM against Histone deacetylase 8; 5.55 µM in experiment [2]; 0.105 µM at Histone deacetylase 3; 0.218 µM at Histone deacetylase 1.
`CCC(=O)CCCCC[C@@H]1NC(=O)C2CCN2CCCCCOc2ccccc2-c2cnc1[nH]2` (stereo in doubt; 4): the EC50 in experiment [1] (setting [4]) was found to be 3.17 µM; in experiment [3] (setting [4]), 5.09 µM. The concentration for half-maximal inhibition (IC50) came to 0.911 µM on Histone deacetylase 2; 21.5 µM against Histone deacetylase 8; 5.39 µM in experiment [2]; 0.091 µM at Histone deacetylase 3; 0.216 µM at Histone deacetylase 1.
With `CCC(=O)CCCCC[C@@H]1NC(=O)C2CCN2CCCCCCOc2ccccc2-c2cnc1[nH]2` (stereo in doubt; 5), the IC50 came to 2.83 µM against Histone deacetylase 2, 0.242 µM against Histone deacetylase 3 and 0.682 µM on Histone deacetylase 1.
Consider `CCC(=O)CCCCC[C@@H]1NC(=O)[C@H]2CC23CCN(C/C=C/CN2C4CCC2c2cc(ccc24)-c2cnc1[nH]2)CC3` (some centres undefined), for which the EC50 in experiment [1] (setting [4]) stood at 0.073 µM; in experiment [3] (setting [4]), 0.076 µM. The values for the IC50 (at Histone deacetylase 2; against Histone deacetylase 8; in experiment [2]) were 0.00086 µM, > 0.9 µM and > 0.9 µM, respectively.
On to `CCC(=O)CCCCC[C@H](NC(=O)[C@H]1CC12CCN(CC)CC2)c1ncc(-c2ccc3c(=O)n(CC)ccc3c2)[nH]1`, for which the results for the EC50 in experiment [1] (setting [4]) and in experiment [3] (setting [4]) were 0.052 µM and 0.056 µM, respectively. Further, the 50% inhibitory concentration (IC50) at Histone deacetylase 2, against Histone deacetylase 3 and on Histone deacetylase 1 was < 0.0015 µM in each case.
In the case of `CCC(=O)CCCCC[C@@H]1NC(=O)[C@H]2CCCCN2C(=O)[C@H]([C@@H](C)CC)NC(=O)[C@H](Cc2cn(OC)c3ccccc23)NC1=O`, the concentration for a half-maximal effect (EC50) in experiment [1] (2c4) was 0.125 µM; in experiment [3] (2c4), 0.587 µM.
Turning to `CCC(=O)CCCCC[C@H](NC(=O)[C@H]1CC12CCN(C)CC2)c1ncc(-c2ccc3c(c2)C2CCC3C2)[nH]1` (some centres undefined), the values for the EC50 in experiment [1] (setting [4]) and in experiment [3] (setting [4]) were 0.351 µM and 0.376 µM, respectively. This molecule showed an IC50 against Histone deacetylase 2 of 0.0037 µM.
As to `CCC(=O)CCCCC[C@@H]1NC(=O)C2CCN2CCCCCCc2ccccc2-c2cnc1[nH]2` (stereo in doubt; 7), the concentration for half-maximal inhibition (IC50) amounted to 5.95 µM at Histone deacetylase 2, 9.83 µM in experiment [2], 1.22 µM on Histone deacetylase 3 and 2.94 µM on Histone deacetylase 1.
For `CCC(=O)CCCCC[C@H](NC(=O)C1CN(C)C1)c1ncc(-c2cc3ccccc3nc2OC)[nH]1`, the IC50 in experiment [2] is 0.68 µM.
For the molecule `CCC(=O)CCCCC[C@@H]1NC(=O)[C@H]2CC23CCN(CCCOCCCn2ccc4cc(ccc4c2=O)-c2cnc1[nH]2)CC3`, the 50% effective concentration (EC50) in experiment [1] (setting [4]) is 1.79 µM; in experiment [3] (setting [4]), 1.99 µM. Further, the IC50 in experiment [2] is > 0.9 µM.
As for `CCC(=O)CCCCC[C@@H]1NC(=O)C2CCN2CCCCCCc2ccccc2-c2cnc1[nH]2` (stereo in doubt; 8), the concentration for half-maximal inhibition (IC50) was found to be 1.14 µM against Histone deacetylase 2, 17.5 µM in experiment [2], 0.188 µM at Histone deacetylase 3 and 0.355 µM against Histone deacetylase 1.
Turning to `CCC(=O)CCCCC[C@H](NC(=O)C1CN(C)C1)c1[nH]c(-c2ccccc2)nc1C(N)=O`, the results for the EC50 in experiment [1] (setting [4]) and in experiment [3] (setting [4]) were 0.294 µM and 0.269 µM, respectively.
As for `CCC(=O)CCCCC[C@H](NC(=O)[C@H]1CC12CCN(CC)CC2)c1[nH]c2nc1C(=O)NCCCCCc1cccc-2c1`, the half-maximal effective concentration (EC50) in experiment [1] (setting [4]) is > 40 µM; in experiment [3] (setting [4]), 12 µM. Further, the IC50 (on Histone deacetylase 2; against Histone deacetylase 8; in experiment [2]) was > 0.9 µM each time.
Turning to `CCC(=O)CCCCC[C@H](NC(=O)[C@H]1CC12CCN(C)CC2)c1ncc(-c2ccc3c(=O)n(C)ccc3c2)[nH]1`, the concentration for a half-maximal effect (EC50) in experiment [3] (setting [4]) came out at 0.13 µM.
As for `CCC(=O)CCCCC[C@H](NC(=O)C1CN(C)C1)c1ncc(-c2ccccc2)[nH]1`, the results for the EC50 in experiment [1] (setting [4]) and in experiment [3] (setting [4]) were 2.47 µM and 2.36 µM, respectively. Moreover, the IC50 on Histone deacetylase 2 turned out to be 0.249 µM; against Histone deacetylase 8, 15 µM; in experiment [2], 5.75 µM; on Histone deacetylase 3, 0.012 µM; against Histone deacetylase 1 it was 0.037 µM.
With `CCC(=O)CCCCC[C@H](NC(=O)[C@H]1CC12CCN(CC)CC2)c1[nH]c(-c2ccc(F)cc2)nc1C(N)=O`, the EC50 came out at 0.193 µM in experiment [1] (setting [4]) and 0.165 µM in experiment [3] (setting [4]).
For `CCC(=O)CCCCC[C@H](NC(=O)[C@H]1CC12CCN(CC)CC2)c1[nH]c2nc1C(=O)NCCC/C=C/c1cccc-2c1` the same measures were 5.24 µM and 19.3 µM.
For `CCC(=O)CCCCC[C@@H]1NC(=O)[C@H]2CC23CCN(CCCCCn2c(=O)ccc4cc(ccc42)-c2cnc1o2)CC3`, the figures for the concentration for a half-maximal effect (EC50) in experiment [1] (setting [4]) and in experiment [3] (setting [4]) were 5.15 µM and 4.73 µM, respectively. Further, the IC50 against Histone deacetylase 2 was 0.26 µM; against Histone deacetylase 8 it was > 0.9 µM; in experiment [2], 0.858 µM; on Histone deacetylase 3 it was 0.056 µM; at Histone deacetylase 1, 0.016 µM.
As to `CCC(=O)CCCCC[C@@H]1NC(=O)[C@H]2CC23CCN(CCCOCCn2ccc4cc(ccc4c2=O)-c2cnc1[nH]2)CC3`, the concentration for a half-maximal effect (EC50) in experiment [1] (setting [4]) and in experiment [3] (setting [4]) was > 40 µM in each case. Moreover, the half-inhibitory concentration (IC50) (against Histone deacetylase 8; in experiment [2]) was > 0.9 µM each time.
Take `CCC(=O)CCCCC[C@@H]1NC(=O)C2CCN2CCCCCOc2ccccc2-c2cnc1[nH]2` (stereo in doubt; 3): the results for the half-inhibitory concentration (IC50) on Histone deacetylase 2, at Histone deacetylase 3 and on Histone deacetylase 1 were 8.62 µM, 0.791 µM and 2.56 µM, respectively.
For `CCC(=O)CCCCC[C@@H]1NC(=O)[C@H]2CC23CCN(CCCCCOc2ccc4cc(ccc4n2)-c2cnc1o2)CC3`, the EC50 in experiment [1] (setting [4]) and in experiment [3] (setting [4]) was > 40 µM throughout. The concentration for half-maximal inhibition (IC50) (at Histone deacetylase 8; in experiment [2]) was > 0.9 µM in each case.
Take `CCC(=O)CCCCC[C@H](NC(=O)[C@H]1CC12CCN(CC)CC2)c1[nH]c2nc1C(=O)NCCC/C=C\c1cccc-2c1`: the EC50 in experiment [1] (setting [4]) was 1.46 µM; in experiment [3] (setting [4]), 2.88 µM. For the same molecule, the IC50 was 0.09 µM against Histone deacetylase 8 and > 0.9 µM in experiment [2].
